For test [1], the system named is Ba/F3-WT (wild type) cells. Briefly: Ba/F3 Proliferation Assay, Ba/F3-WT (wild type) cells with mIL-3 (Resazurin). The class given is cell-based. As to conditions: Mus musculus, BaF3, 48 h, Ba/F3-WT cells +mIL-3, 48-hour incubation. On the procedure:
(§1) Ba/F3-Syk and Ba/F3-WT (wild type) cells were maintained at ≤1×10^6 cell/mL in RPMI (Life Technologies) with 10% FBS at 37° C. and 5% CO2 for a maximum of four weeks. Ba/F3-WT additionally contained 2 ng/mL mIL-3 (R&D Systems) to induce cellular growth. Cells were counted and dispensed at 5000 cells/well using a Multidrop Liquid Dispenser in a volume of 45 μL into black 384-well TC treated plates (Greiner) and incubated for four hours in complete media (+mIL-3 for Ba/F3-WT). Compounds were serially diluted in 100% DMSO, prior to an intermediate dilution in RPMI media. 5 μL of compound (0.4% final DMSO) was added to the cells, followed by a 48-hour incubation period. 5 μL of Resazurin (60 μM final) was then added and cells were incubated at 37° C. for three hours, before fluorescence (λex530/λem585) was measured using an Ensight Multimode Plate Reader (Perkin Elmer).
A general note: Alamar Blue is a resazurin reagent that responds to reducing activity.

Test [2] addresses T1, Ba/F3-Syk cells (Homo sapiens, UniProt P43405).
T1 construct: fused on or other part: Possible but unprinted fusion partner: TEL (ETV6), the usual partner for Ba/F3 lines transformed by Syk; Nothing on a partner is printed
Briefly: Ba/F3 Proliferation Assay, Ba/F3-Syk cells (Resazurin). It is filed as cell-based. As to conditions: 48-hour incubation. Here is the method: as §1

pEC50: −log10 of the molar value.

Regarding `Cc1cc(-c2cc3ncccc3c(OC[C@@H]3CNCCO3)n2)c(C)s1` [Compound 2.37, 7-(2,5-dimethylthiophen-3-yl)-5-{[(2S)-morpholin-2-yl]methoxy}-1,6-naphthyridine], the pEC50 (in general, the EC50 on a negative log10 scale, so that one unit is a factor of ten) in test [1] is 5.55; in test [2], 5.91.
In the case of `Cn1cccc1-c1cc2ncccc2c(OC[C@@H]2CNCCO2)n1` [Compound 2.38, 7-(1-methyl-1H-pyrrol-2-yl)-5-{[(2S)-morpholin-2-yl]methoxy}-1,6-naphthyridine], the pEC50 in test [1] was less than 5.00; in test [2], 5.84.
Turning to `Clc1cc(-c2cc3ncccc3c(OC[C@@H]3CNCCO3)n2)cs1` [Compound 2.39, 7-(5-chlorothiophen-3-yl)-5-{[(2S)-morpholin-2-yl]methoxy}-1,6-naphthyridine], the results for the negative-log EC50 (pEC50) in test [1] and in test [2] were 5.77 and 6.61, respectively.
For `Cc1cc(-c2cc3ncccc3c(OC[C@@H]3CNCCO3)n2)c(C)n1C` [Compound 2.40, 5-{[(2S)-morpholin-2-yl]methoxy}-7-(1,2,5-trimethyl-1H-pyrrol-3-yl)-1,6-naphthyridine] the same measures were less than 5.00 and 6.19.
For the compound `Cn1cc(-c2cc3ncccc3c(OCC3CNCCCO3)n2)cn1` (stereo not drawn) [Compound 2.41, 7-(1-methyl-1H-pyrazol-4-yl)-5-[(1,4-oxazepan-2-yl)methoxy]-1,6-naphthyridine], the figures for the pEC50 in test [1] and in test [2] were 5.63 and 6.90, respectively.
As for `CC(C)(C)n1cc(-c2cc3ncccc3c(OCC3CNCCCO3)n2)cn1` (stereo not drawn) [Compound 2.47, 7-(1-tert-butyl-1H-pyrazol-4-yl)-5-[(1,4-oxazepan-2-yl)methoxy]-1,6-naphthyridine], the pEC50 in test [1] was 5.49; in test [2] it was 7.32.
Consider `Cn1ccc(-c2cc3ncccc3c(OCC3CNCCCO3)n2)c1` (stereo not drawn) [Compound 2.48, 7-(1-methyl-1H-pyrrol-3-yl)-5-[(1,4-oxazepan-2-yl)methoxy]-1,6-naphthyridine], for which the pEC50 is 5.39 in test [1] and 6.92 in test [2].
Turning to `Cn1cc(-c2cc3ncccc3c(OC[C@@H]3CNCCCO3)n2)cn1` [Compound 2.50, 7-(1-methyl-1H-pyrazol-4-yl)-5-{[(2S)-1,4-oxazepan-2-yl]methoxy}-1,6-naphthyridine], the pEC50 is 5.21 in test [1] and 6.82 in test [2].
With `CC(C)n1cc(-c2cc3ncccc3c(OC[C@@H]3CNCC4(CCC4)O3)n2)cn1` [Compound 2.56, 5-{[(6S)-5-oxa-8-azaspiro[3.5]nonan-6-yl]methoxy}-7-[1-(propan-2-yl)-1H-pyrazol-4-yl]-1,6-naphthyridine], the negative-log EC50 (pEC50) was 5.84 in test [1] and 7.48 in test [2].
For `CC(C)(C)n1cc(-c2cc3ncccc3c(OC[C@H]3CNCCCO3)n2)cn1` [Compound 2.59, 7-(1-tert-butyl-1H-pyrazol-4-yl)-5-{[(2R)-1,4-oxazepan-2-yl]methoxy}-1,6-naphthyridine] the same measures were 6.01 and 7.23.
In the case of `CC(C)(C)n1ccc(-c2cc3ncccc3c(OC[C@@H]3CNCC4(CC4)O3)n2)c1` [Compound 2.61, 7-(1-tert-butyl-1H-pyrrol-3-yl)-5-{[(5S)-4-oxa-7-azaspiro[2.5]octan-5-yl]methoxy}-1,6-naphthyridine], the pEC50 in test [1] was 5.58; in test [2], 8.01.
For `CC(C)n1cc(-c2cc3ncccc3c(OC[C@@H]3CNCC4(CC4)O3)n2)cn1` [Compound 2.62, 5-{[(5S)-4-oxa-7-azaspiro[2.5]octan-5-yl]methoxy}-7-[1-(propan-2-yl)-1H-pyrazol-4-yl]-1,6-naphthyridine] the same measures were 5.89 and 7.50.
For `C[C@H](Oc1nc(-c2ccn(C)c2)cc2ncccc12)[C@@H]1CNCC(C)(C)O1` [Compound 2.64, 5-[(1S)-1-[(2S)-6,6-dimethylmorpholin-2-yl]ethoxy]-7-(1-methyl-1H-pyrrol-3-yl)-1,6-naphthyridine] the same measures were less than 5.00 and 6.60.
`C[C@@H](Oc1nc(-c2ccn(C)c2)cc2ncccc12)[C@@H]1CNCC(C)(C)O1` [Compound 2.65, 5-[(1R)-1-[(2S)-6,6-dimethylmorpholin-2-yl]ethoxy]-7-(1-methyl-1H-pyrrol-3-yl)-1,6-naphthyridine]: the pEC50 in test [1] was 5.60; in test [2], 7.93.
On to `C[C@@H](Oc1nc(-c2ccn(C(C)(C)C)c2)cc2ncccc12)[C@@H]1CNCCO1` [Compound 2.68, 7-(1-tert-butyl-1H-pyrrol-3-yl)-5-[(1R)-1-[(2S)-morpholin-2-yl]ethoxy]-1,6-naphthyridine], for which the results for the negative-log EC50 (pEC50) in test [1] and in test [2] were 5.36 and 7.86, respectively.
Regarding `CC(C)n1cc(-c2cc3ncccc3c(OC[C@@H]3CNCCCO3)n2)cn1` [Compound 2.70, 5-{[(2S)-1,4-oxazepan-2-yl]methoxy}-7-[1-(propan-2-yl)-1H-pyrazol-4-yl]-1,6-naphthyridine], the values for the pEC50 in test [1] and in test [2] were 5.81 and 7.72, respectively.
Take `Cn1cc(-c2cc3ncccc3c(OC[C@H]3CN[C@@H]4CCC[C@@H]4O3)n2)cn1` [Compound 2.72, 5-{[(2R,4aR,7aS)-octahydrocyclopenta[b][1,4]oxazin-2-yl]methoxy}-7-(1-methyl-1H-pyrazol-4-yl)-1,6-naphthyridine]: the pEC50 was 5.72 in test [1] and 6.58 in test [2].
`Cn1cc(-c2cc3ncccc3c(OC[C@@H]3CN[C@H]4CCC[C@H]4O3)n2)cn1` [Compound 2.73, 5-{[(2S,4aS,7aR)-octahydrocyclopenta[b][1,4]oxazin-2-yl]methoxy}-7-(1-methyl-1H-pyrazol-4-yl)-1,6-naphthyridine]: the pEC50 in test [1] is 5.47; in test [2], 7.49.
Take `C[C@H]1CNC[C@@H](COc2nc(-c3cnn(C)c3)cc3ncccc23)O1` [Compound 2.74, 7-(1-methyl-1H-pyrazol-4-yl)-5-{[(25,6S)-6-methylmorpholin-2-yl]methoxy}-1,6-naphthyridine]: the pEC50 in test [1] was 5.54; in test [2], 6.96.
On to `C[C@H]1CNC[C@@H](COc2nc(-c3ccn(C)c3)cc3ncccc23)O1` [Compound 2.75, 7-(1-methyl-1H-pyrrol-3-yl)-5-{[(2,6S)-6-methylmorpholin-2-yl]methoxy}-1,6-naphthyridine], for which the pEC50 is 5.41 in test [1] and 7.17 in test [2].
For `C[C@@H]1CNC[C@@H](COc2nc(-c3ccn(C)c3)cc3ncccc23)O1` [Compound 2.77, 7-(1-methyl-1H-pyrrol-3-yl)-5-{[(2S,6R)-6-methylmorpholin-2-yl]methoxy}-1,6-naphthyridine], the values for the negative logarithm of the EC50 (pEC50) in test [1] and in test [2] were 5.27 and 7.37, respectively.
Turning to `O=C1CCn2cc(-c3cc4ncccc4c(OC[C@@H]4CNCCO4)n3)cc21` [Compound 2.78, 6-(5-{[(2S)-morpholin-2-yl]methoxy}-1,6-naphthyridin-7-yl)-2,3-dihydro-1H-pyrrolizin-1-one], the negative-log EC50 (pEC50) in test [1] was 5.31; in test [2], 6.83.
For `Cn1ccc(-c2cc3ncccc3c(OC[C@@H]3CNC(C)(C)CCO3)n2)c1` [Compound 2.79, 5-{[(2S)-5,5-dimethyl-1,4-oxazepan-2-yl]methoxy}-7-(1-methyl-1H-pyrrol-3-yl)-1,6-naphthyridine] the same measures were less than 5.00 and 6.22.
Turning to `CC1(C)CNC[C@H](COc2nc(-c3cnn(C(C)(C)C)c3)cc3ncccc23)O1` [Compound 2.82, 7-(1-tert-butyl-1H-pyrazol-4-yl)-5-{[(2R)-6,6-dimethylmorpholin-2-yl]methoxy}-1,6-naphthyridine], the pEC50 in test [1] was 5.64; in test [2], 6.90.
For `C[C@@H](Oc1nc(-c2cnn(C)c2)cc2ncccc12)[C@@H]1CNCC(C)(C)O1` [Compound 2.83, 5-[(1R)-1-[(2S)-6,6-dimethylmorpholin-2-yl]ethoxy]-7-(1-methyl-1H-pyrazol-4-yl)-1,6-naphthyridine] the same measures were 5.78 and 7.47.
Take `CC(C)n1cc(-c2cc3ncccc3c(O[C@H](C)[C@@H]3CNCC(C)(C)O3)n2)cn1` [Compound 2.84, 5-[(1R)-1-[(2S)-6,6-dimethylmorpholin-2-yl]ethoxy]-7-[1-(propan-2-yl)-1H-pyrazol-4-yl]-1,6-naphthyridine]: the figures for the negative-log EC50 (pEC50) in test [1] and in test [2] were 5.66 and 7.65, respectively.
For `CC(C)(C)n1cc(-c2cc3ncccc3c(OC[C@@H]3CNCC(F)(F)CO3)n2)cn1` [Compound 2.86, 7-(1-tert-butyl-1H-pyrazol-4-yl)-5-{[(2S)-6,6-difluoro-1,4-oxazepan-2-yl]methoxy}-1,6-naphthyridine] the same measures were less than 5.00 and 5.67.
With `CC1(C)CNC[C@@H](COc2nc(-c3cnn(C4(C)CCC4)c3)cc3ncccc23)O1` [Compound 2.87, 5-{[(2S)-6,6-dimethylmorpholin-2-yl]methoxy}-7-[1-(1-methylcyclobutyl)-1H-pyrazol-4-yl]-1,6-naphthyridine], the pEC50 in test [1] was 5.96; in test [2] it was 7.95.
`CC1(C)CNC[C@@H](COc2nc(-c3cnn(C4(C)CC4)c3)cc3ncccc23)O1` [Compound 2.88, 5-{[(2S)-6,6-dimethylmorpholin-2-yl]methoxy}-7-[1-(1-methylcyclopropyl)-1H-pyrazol-4-yl]-1,6-naphthyridine]: the pEC50 in test [1] was 5.81; in test [2] it was 7.75.
As to `CC1(C)CNC[C@@H](COc2nc(-c3cnn(C4(C)CCOC4)c3)cc3ncccc23)O1` (stereo partly drawn) [Compound 2.89], the values for the pEC50 in test [1] and in test [2] were 5.56 and 7.66, respectively.
